In patent US11098040B2, “Compounds and methods of use” (Ferro Therapeutics, Inc., priority 2018, dated 2021):
Like-named read-outs stand apart in the source and are kept apart here.

Columns and labels:
[1] = test system: KP4; test: Cell viability assay (CellTiter Glo), pancreatic ductal adenocarcinoma KP4; format: cell-based, human; conditions: Homo sapiens
Procedure: (§1) Cell viability assay was performed to assess the potency of the compounds in human cancer cell lines KP4 (pancreatic ductal adenocarcinoma), MiaPaCa-2 (pancreatic carcinoma), AsPC-1 (pancreatic adenocarcinoma, ascites), 143B (osteosarcoma), and SJSA-1 (osteosarcoma). Selected compounds were also assayed in a human breast epithelial cell line MCF-10A, a nontumorigenic cell line as a control to assess differential activity. Cells at a density of 500-5,000 cells/well were seeded in 96-well plates and incubated at 37° C. overnight. A series of 9 different concentrations of compound stocks (500×) were created by 3-fold serial dilution in DMSO. These compounds were further diluted in culture media and then added to cells so that the final DMSO concentration was equal to 0.25% or less. After 96 hours of incubation, 50 μL of CellTiter Glo reagent (Promega) was added to each well and luminescence was measured after 10 minutes using EnVision (PerkinElmer). Compounds titrated from top concentration of up to 30 μM. The select compounds were tested initially from 30 μM as the top concentration in duplicates (range of 4.6 nM-30 μM). […] Luminescence from cells treated with DMSO alone was set as Max and % of inhibition was calculated as follows: Inhibition %=(Max-Sample value)/Max*100. Data was analyzed using XL-fit software (ID Business Solutions Ltd.). IC50, relative IC50, or % of top inhibition was calculated.
as §1, with “in” for “in human”, “line” for “lines”, “adenocarcinoma).” for “adenocarcinoma), MiaPaCa-2 (pancreatic carcinoma), AsPC-1 (pancreatic adenocarcinoma, ascites), 143B (osteosarcoma), and SJSA-1 (osteosarcoma). Selected compounds were also assayed in a human breast epithelial cell line MCF-10A, a nontumorigenic cell line as a control to assess differential activity.”, “1,000-10,000” for “500-5,000”, “All” for “Compounds titrated from top concentration of up to 30 μM. The select”
(§2) The results of the assay on stability in blood and IC50 values for pancreatic cancer cell line KP4 are given below in Table 24.

[2] = Whole blood stability, mouse; format: in vitro ADME
Text: as §2

[3] = Whole blood stability, human; format: in vitro ADME
Text: as §2

[4] = KP-4, 96 h, pancreatic cancer cell line KP4, 96 hours, CellTiter Glo, read-out: IC50 μM KP4
[5] = KP-4, Cell Line KP4, read-out: IC50

| SMILES | IC50 [1, 4] [µM] | Whole Blood Stability % Remaining at 37° C. Mouse ([2]; 0 min) [%] | Whole Blood Stability % Remaining at 37° C. Mouse ([2]; 30 min) [%] | Whole Blood Stability % Remaining at 37° C. Mouse ([2]; 60 min) [%] | Whole Blood Stability % Remaining at 37° C. Human ([3]; 0 min) [%] | Whole Blood Stability % Remaining at 37° C. Human ([3]; 30 min) [%] | Whole Blood Stability % Remaining at 37° C. Human ([3]; 60 min) [%] | IC50 [1, 5] [µM] |
| --- | --- | --- | --- | --- | --- | --- | --- | --- |
| COC(=O)[C@H]1Cc2c([nH]c3ccccc23)[C@H](c2ccc(C(=O)NC(C(=O)O)C(C)(C)C)cc2)N1C(=O)CCl (single isomer, unassigned) [Compound 10] | 0.5 to 1 | 100.0 | 82.2 | 65.0 | 100.0 | 84.0 | 54.3 | – |
| O=C(O)c1ccc([C@H]2c3[nH]c4ccccc4c3C[C@H](C(=O)O)N2C(=O)CCl)cc1 [Compound 5] | > 1 | 100.0 | 86.3 | 67.9 | 100.0 | 106.3 | 82.0 | – |
| COC(=O)[C@H]1Cc2c([nH]c3ccccc23)[C@H](c2ccc(C(=O)OC[C@]34C[C@H]5C[C@H](C[C@H](C5)C3)C4)cc2)N1C(=O)CCl [Compound 6] | 0.01 to 0.1 | 100.0 | 12.4 | 4.7 | 100.0 | 54.8 | 33.0 | – |
| CC(C)(C)OC(=O)[C@H]1Cc2c([nH]c3ccccc23)[C@H](c2ccc([N+](=O)[O-])cc2)N1C(=O)CCl [Compound 11] | 0.01 to 0.1 | 100.0 | 56.9 | 38.6 | 100.0 | 67.1 | 59.9 | – |
| COC(=O)[C@H]1Cc2c([nH]c3ccccc23)[C@H](c2ccc(OC(C)=O)cc2)N1C(=O)CCl [Compound 12] | 0.01 to 0.1 | 100.0 | 0.0 | 0.0 | 100.0 | 0.0 | 0.1 | – |
| COC(=O)[C@H]1Cc2c([nH]c3ccccc23)[C@H](c2ccc(OC(=O)C(C)(C)C)cc2)N1C(=O)CCl [Compound 13] | 0.1 to 0.5 | 100.0 | 0.0 | 0.0 | 100.0 | 34.9 | 29.2 | – |
| COC(=O)[C@H]1Cc2c([nH]c3ccccc23)[C@@H](c2ccc(OC(=O)C(C)(C)C)cc2)N1C(=O)CCl [Compound 13a] | 0.5 to 1 | 100.0 | 0.0 | 0.0 | 100.0 | 56.6 | 59.9 | – |
| CN(C)C(=O)[C@H]1Cc2c([nH]c3ccccc23)[C@@H](c2ccc(C(=O)OC(C)(C)C)cc2)N1C(=O)CCl [Compound 21a] | 0.1 to 0.5 | – | – | – | – | – | – | – |
| CN(C)C(=O)[C@H]1Cc2c([nH]c3ccccc23)[C@H](c2ccncc2)N1C(=O)CCl [Compound 50] | 0.1 to 0.5 | – | – | – | – | – | – | – |
| C[C@H]1Cc2c([nH]c3ccccc23)[C@@H](c2ccc(N3CCN(C)CC3)cc2)N1C(=O)OCl [Compound 105] | 0.5 to 1 | – | – | – | – | – | – | – |
| C[C@H]1Cc2c([nH]c3ccccc23)[C@H](c2ccc([Si](C)(C)C)cc2)N1C(=O)CCl [Compound 106] | < 0.01 | – | – | – | – | – | – | – |
| C[C@H]1Cc2c([nH]c3ccccc23)[C@@H](c2ccc([Si](C)(C)C)cc2)N1C(=O)CCl [Compound 107] | > 1 | – | – | – | – | – | – | – |
| C[C@H]1Cc2c([nH]c3ccccc23)[C@H](c2ccc(C3CC3)cc2)N1C(=O)CCl [Compound 108] | < 0.01 | – | – | – | – | – | – | – |
| [2H]C([2H])(Cl)C(=O)N1[C@@H](c2ccc(S(=O)(=O)NC34CC5CC(CC(C5)C3)C4)cc2)c2[nH]c3ccccc3c2C[C@@H]1C(=O)OC [Compound 251] | – | – | – | – | – | – | – | 0.0065 |
| COC(=O)c1ccc([C@H]2c3[nH]c4ccc(OC)cc4c3C[C@H](C(=O)OC)N2C(=O)CCl)cc1 [Compound 277] | – | – | – | – | – | – | – | 0.036 |

Next, values leading:

| IC50 [1, 4] [µM] | Whole Blood Stability % Remaining at 37° C. Mouse ([2]; 0 min) [%] | Whole Blood Stability % Remaining at 37° C. Mouse ([2]; 30 min) [%] | Whole Blood Stability % Remaining at 37° C. Mouse ([2]; 60 min) [%] | Whole Blood Stability % Remaining at 37° C. Human ([3]; 0 min) [%] | Whole Blood Stability % Remaining at 37° C. Human ([3]; 30 min) [%] | Whole Blood Stability % Remaining at 37° C. Human ([3]; 60 min) [%] | IC50 [1, 5] [µM] | SMILES |
| --- | --- | --- | --- | --- | --- | --- | --- | --- |
| 0.01 to 0.1 | 100.0 | 0.0 | 0.0 | 100.0 | 95.7 | 46.8 | – | C#CCOC(=O)c1ccc([C@@H]2c3[nH]c4ccccc4c3C[C@H](C(=O)OC)N2C(=O)CCl)cc1 [BXa] |
| < 0.01 | 100.0 | 59.6 | 46.6 | 100.0 | 60.5 | 43.0 | – | COC(=O)[C@H]1Cc2c([nH]c3ccccc23)[C@H](c2ccc(C(=O)OC(C)(C)C)cc2)N1C(=O)CCl [Compound 1] |
| 0.01 to 0.1 | 100.0 | 0.1 | 0.1 | 100.0 | 58.5 | 39.4 | – | COC(=O)c1ccc([C@H]2c3[nH]c4ccccc4c3C[C@H](C(=O)OC(C)(C)C)N2C(=O)CCl)cc1 [Compound 2] |
| > 1 | 100 | 51.3 | 23.6 | 100 | 43.0 | 29.4 | – | COC(=O)c1ccc([C@H]2c3[nH]c4ccccc4c3C[C@H](C(=O)O)N2C(=O)CCl)cc1 [Compound 3] |
| > 1 | 100.0 | 76.6 | 63.9 | 100.0 | 59.3 | 57.9 | – | COC(=O)[C@H]1Cc2c([nH]c3ccccc23)[C@H](c2ccc(C(=O)O)cc2)N1C(=O)CCl [Compound 4] |
| 0.01 to 0.1 | 100.0 | 68.2 | 48.6 | 100.0 | 60.1 | 44.5 | – | CNC(=O)c1ccc([C@H]2c3[nH]c4ccccc4c3C[C@H](C(=O)OC)N2C(=O)CCl)cc1 [Compound 7] |
| < 0.01 | 100.0 | 53.0 | 30.5 | 100.0 | 52.0 | 26.5 | – | COC(=O)[C@H]1Cc2c([nH]c3ccccc23)[C@H](c2ccc(C(=O)N(C)C)cc2)N1C(=O)CCl [Compound 8] |
| < 0.01 | 100.0 | 61.9 | 40.6 | 100.0 | 53.8 | 47.0 | – | COC(=O)[C@H]1Cc2c([nH]c3ccccc23)[C@H](c2ccc(C(=O)NC(C)(C)C)cc2)N1C(=O)CCl [Compound 9] |
| < 0.01 | – | – | – | – | – | – | – | [2H]C([2H])(Cl)C(=O)N1[C@@H](c2ccc(C(=O)OC)cc2)c2[nH]c3ccccc3c2C[C@@H]1C(=O)OC [Compound 90] |
